Assay results as given in the NIST ThermoML archive (doi:10.1021/je500380x).

Test: mn = molality of the nth substance listed, in mol/kg
Details: 100 kPa, Liquid; for electrical conductivity: Alternating current cell with electrodes; for viscosity: Falling or rolling sphere viscometry; for mass density: Vibrating tube method

CCC(=O)OCCN1CCNCC1 [2-(piperazin-1-yl)ethyl propionate] + CCO
Details	electrical conductivity [S/m]	mass density [kg/m3]	viscosity [mPa·s]
293.15 K, m1 = 0.05	0.018	792.31	1.231
293.15 K, m1 = 0.1	0.0284	795.01	1.291
293.15 K, m1 = 0.1985	0.0443	800.36	1.369
293.15 K, m1 = 0.3005	0.0571	806.02	1.473
293.15 K, m1 = 0.4001	0.0671	811.4	1.577
293.15 K, m1 = 0.5007	0.0769	817.08	1.711
293.15 K, m1 = 0.5998	0.0851	822.5	1.845
293.15 K, m1 = 0.7002	0.092	828.2	2
293.15 K, m1 = 0.8	0.0988	833.89	2.198
293.15 K, m1 = 0.8957	0.1048	839.61	2.363
293.15 K, m1 = 1	0.1105	845.48	2.582
293.15 K, m1 = 1.198	0.119	857.06	3.081
293.15 K, m1 = 1.401	0.126	869.49	3.774
293.15 K, m1 = 1.602	0.13	881.43	4.697
293.15 K, m1 = 1.8	0.1314	893.69	5.93
293.15 K, m1 = 2.001	0.1308	906.93	7.934
293.15 K, m1 = 2.198	0.127	918.83	9.733
293.15 K, m1 = 2.397	0.121	931.94	12.86
293.15 K, m1 = 2.597	0.1137	945.08	18.8
293.15 K, m1 = 2.796	0.106	958.17	25.23
293.15 K, m1 = 3.006	0.0951	972.39	37.45
298.15 K, m1 = 0.05	0.0186	788.01	1.12
298.15 K, m1 = 0.1	0.0296	790.73	1.173
298.15 K, m1 = 0.1985	0.0465	796.08	1.241
298.15 K, m1 = 0.3005	0.06	801.71	1.333
298.15 K, m1 = 0.4001	0.071	807.14	1.424
298.15 K, m1 = 0.5007	0.0816	812.78	1.541
298.15 K, m1 = 0.5998	0.0904	818.26	1.658
298.15 K, m1 = 0.7002	0.0977	823.96	1.793
298.15 K, m1 = 0.8	0.106	829.67	1.967
298.15 K, m1 = 0.8957	0.1123	835.39	2.11
298.15 K, m1 = 1	0.119	841.3	2.298
298.15 K, m1 = 1.198	0.129	852.92	2.729
298.15 K, m1 = 1.401	0.137	865.42	3.319
298.15 K, m1 = 1.602	0.1415	877.35	4.106
298.15 K, m1 = 1.8	0.1443	889.66	5.146
298.15 K, m1 = 2.001	0.1447	902.95	6.811
298.15 K, m1 = 2.198	0.1423	914.88	8.295
298.15 K, m1 = 2.397	0.138	928.01	10.83
298.15 K, m1 = 2.597	0.1304	941.19	15.64
298.15 K, m1 = 2.796	0.1237	954.36	20.7
298.15 K, m1 = 3.006	0.1136	968.58	30.28
303.15 K, m1 = 0.05	0.0191	783.69	1.021
303.15 K, m1 = 0.1	0.0305	786.41	1.069
303.15 K, m1 = 0.1985	0.0483	791.76	1.2
303.15 K, m1 = 0.3005	0.0627	797.4	1.209
303.15 K, m1 = 0.4001	0.0745	802.85	1.289
303.15 K, m1 = 0.5007	0.0858	808.5	1.392
303.15 K, m1 = 0.5998	0.0954	813.99	1.495
303.15 K, m1 = 0.7002	0.1036	819.7	1.613
303.15 K, m1 = 0.8	0.1125	825.43	1.766
303.15 K, m1 = 0.8957	0.119	831.17	1.89
303.15 K, m1 = 1	0.127	837.09	2.054
303.15 K, m1 = 1.198	0.139	848.73	2.427
303.15 K, m1 = 1.401	0.149	861.28	2.935
303.15 K, m1 = 1.602	0.155	873.24	3.606
303.15 K, m1 = 1.8	0.16	885.6	4.489
303.15 K, m1 = 2.001	0.1614	898.93	5.886
303.15 K, m1 = 2.198	0.159	910.89	7.117
303.15 K, m1 = 2.397	0.155	924.07	9.203
303.15 K, m1 = 2.597	0.147	937.29	13.25
303.15 K, m1 = 2.796	0.14	950.5	17.19
303.15 K, m1 = 3.006	0.1307	964.74	24.65
308.15 K, m1 = 0.05	0.0194	–	0.934
308.15 K, m1 = 0.1	0.0313	–	0.976
308.15 K, m1 = 0.1985	0.0499	–	1.028
308.15 K, m1 = 0.3005	0.0652	–	1.1
308.15 K, m1 = 0.4001	0.0776	–	1.171
308.15 K, m1 = 0.5007	0.0899	–	1.261
308.15 K, m1 = 0.5998	0.1004	–	1.352
308.15 K, m1 = 0.7002	0.109	–	1.456
308.15 K, m1 = 0.8	0.119	–	1.59
308.15 K, m1 = 0.8957	0.126	–	1.698
308.15 K, m1 = 1	0.135	–	–
308.15 K, m1 = 1.198	0.148	–	–
308.15 K, m1 = 1.401	0.1609	–	–
308.15 K, m1 = 1.602	0.169	–	–
308.15 K, m1 = 1.8	0.1747	–	–
308.15 K, m1 = 2.001	0.178	–	–
308.15 K, m1 = 2.198	0.177	–	–
308.15 K, m1 = 2.397	0.173	–	–
308.15 K, m1 = 2.597	0.165	–	–
308.15 K, m1 = 2.796	0.158	–	–
308.15 K, m1 = 3.006	0.148	–	–
